In patent publication US20140171438A1, “Hybrid Compounds And Methods Of Making And Using The Same” (CELLCEUTIX CORPORATION, priority 2012, published 2014):
Converted amounts (≈) assume the structure as drawn.

Key:
[1] = Cytotoxicity, colorimetric tetrazolium assay; type: cell-based; settings: one hour with compound in serum-free media
Description: Cytotoxicity of the compounds was evaluated in a colorimetric assay using a transformed human liver cell line (HepG2, HB-8065) and an embryonic mouse cell line (NIH/3T3 cells, CRL-1658). This assay measures the bioreduction of a novel tetrazolium compound to a soluble formazan product by viable cells. HepG2 cells were seeded in 96 well plates at 2×10^4 cells/well in MEM medium with 10% fetal bovine serum (FBS) for 24 hours prior to use. NIH/3T3 cells were seeded in 96 well plates at 2×10^4 cells/well in DMEM medium with 10% bovine calf serum (BCS) 24 hours prior to use. Cell monolayers were rinsed in serum-free media and incubated for one hour with the compound in serum-free media. After incubation, the media was replaced with serum supplemented media and live cells were measured using the Cell Titer 96 Aqueous […] (Promega, Madison, Wis.). EC50 values were determined using a four parameter logistic equation: Y=Bottom+(Top−Bottom)/(1+10̂((Log EC50−X)*HillSlope)). Actual results from a representative cytotoxicity assay are shown below in Table 2. Data is expressed as EC50 in μg/mL.

[2] = test system: Klebsiella pneumoniae ATCC 13883; assay: Antimicrobial activity, MIC, modified microbroth dilution; type: cell-based; settings: ATCC13883, K. pneumoniae (13883), 18 hours incubation, read-out: MIC (expressed as MIC50) K. Pnuemnoiae
Description: (§1) The compounds were screened for antimicrobial activity against a number of ATCC bacterial strains. Minimum Inhibitory Concentrations (MIC) of each of the compounds were determined using standard CLSI procedures modified by Hancock protocol against E. Coli ATCC 25922, Staphylococcus aureus ATCC 27660, Enterococcus faecalis ATCC 29212, Pseudomonas aeruginosa ATCC 10145, and Klebsiella pneumoniae ATCC 13883.
(§2) This procedure is a modification of the standard microbroth dilution assay recommended by the National Committee for Clinical Laboratory Standards (NCCLS) which has been developed for determining in vitro antimicrobial activities of cationic agents (Steinberg et al., Antimicrob. Agents Chemother., 1997, 41, 1738; and Yan et al., Antimicrob. Agents Chemother., 2001, 45, 1558). The modifications were made to minimize loss of the antimicrobial agent due to adsorption onto glass or plastic surfaces and by precipitation at high concentrations.
(§3) Three mL of Mueller-Hinton II Broth (cation-adjusted) was inoculated with 5 μL of frozen bacterial stock and incubated at 37° C. on a shaker platform (at 250 rpm) overnight. Compound stock solutions were prepared in DMSO and serial two-fold dilutions of compound were made in 0.01% acetic acid, 0.2% bovine serum albumin directly in the wells of the polypropylene plate at 10 μL/well. […] All samples were performed in duplicate. The overnight bacteria suspension was diluted to approximately 10^6 cfu/mL and inoculated into a polypropylene (Costar) 96-well round bottom plate (90 μL volumes). One set of control wells included broth-only samples with dilution buffer for testing sterility and providing blank values for the assay readings. Vehicle-control wells containing the bacterial suspension with DMSO (no compound) were also included. Following the overnight incubation (18 hours), cell growth was assessed by observing the presence of “acceptable growth”, defined by NCCLS as a ≧2 mm button or definite turbidity.
(§4) Actual results from a representative MIC assay are shown below in Table 1. Data is expressed as MIC50 in μg/mL. The bacterial isolates were as follows: E. coli (25922); S. aureus (27660); E. faecalis (29212); P. aeruginosa (10145); and K. pneumoniae (13883).

[3] = test system: Pseudomonas aeruginosa ATCC 10145; assay: as above; type: cell-based; settings: ATCC10145, P. aeruginosa (10145), 18 hours incubation, read-out: MIC (expressed as MIC50) P. Aeruginosa
Description: as §1, §2, §3, §4

[4] = test system: Staphylococcus aureus ATCC 27660; assay: as above; type: cell-based; settings: ATCC27660, S. aureus (27660), 18 hours incubation, read-out: MIC (expressed as MIC50) S. aureus
Description: as §1, §2, §3, §4

[5] = test system: E. Coli ATCC 25922; assay: as above; type: cell-based; settings: Escherichia coli, ATCC25922; E. coli (25922); 18 hours incubation; read-out: MIC (expressed as MIC50) E. coli
Description: as §1, §2, §3, §4

[6] = test system: Enterococcus faecalis ATCC 29212; assay: as above; type: cell-based; settings: ATCC29212, E. faecalis (29212), 18 hours incubation, read-out: MIC (expressed as MIC50) E. faecalis
Description: as §1, §2, §3, §4

[7] = test system: MRSA ATCC 33591; assay: Anti-biofilm activity, minimum biofilm eradication concentration (MBEC); type: cell-based, Staphylococcus aureus; settings: MRSA ATCC 33591 biofilm on filter paper disks; 24 hours challenge
Description: The in vitro activity against biofilm was carried out by following the protocol for biofilm development and challenge using filter paper disks and 24-well plates. On day one, a tryptic soy agar plate (TSA) was streaked for MRSA isolation. On the second day a single colony of MRSA was grown in about 5 mL of tryptic soy broth (TSB). Filter papers were punched and autoclaved in 96-well plate. On the third day, a single filter paper disk was placed in each well of 24-well plate. The plate was inoculated with 300 μL/well of 0.01 adjusted OD600 bacteria inoculum in TSB supplemented with 1% glucose and 1.6% NaCl. The cells were allowed to grow for 48 hours on a shaker at 37° C. On day five, the challenge plate(s) were made in a 24-well plate(s), using eppendorf tubes to make dilutions and aliquoted into designated wells. The wash plates were filled in each well of a 24-well plate with 500 μL 0.9% saline. The disks were removed with forceps from the growth plate to the wash plate to challenge plate, flaming in between or where needed. Once disks are in challenge plate, incubated for 24 hours on shaker at 37° C. […] On day seven, the colonies were counted.
The actual MBEC of Compound 113 against MRSA ATCC 33591 was determined to be 32 μg/mL.

[8] = mouse, NIH/3T3 cells (CRL-1658)

Compound | EC50 at 1 h ([1]; human, HepG2 cells (HB-8065)) [µg/mL] | EC50 at 1 h [1, 8] [µg/mL] | MIC50 [2] [µg/mL] | MIC50 [3] [µg/mL] | MIC50 [4] [µg/mL] | MIC50 [5] [µg/mL] | MIC50 [6] [µg/mL] | MBEC [7] [µg/mL] | MIC [2] [µg/mL] | MIC [3] [µg/mL] | MIC [4] [µg/mL] | MIC [5] [µg/mL] | MIC [6] [µg/mL]
N=C(N)NCCCC(=O)Nc1cc(C(F)(F)F)cc(NC(=O)Nc2ccc3nc(-c4ccc(NCCCN)cc4)sc3c2)c1SCCN [Compound 110, N-[2-(2-aminoethylsulfanyl)-3-[[2-[4-(3-aminopropylamino)phenyl]-1,3-benzothiazol-6-yl]carbamoylamino]-5-(trifluoromethyl)phenyl]-4-guanidino-butanamide] | 49.9 (≈ 71 µM) | 50.7 (≈ 72.1 µM) | 3.13 (≈ 4.45 µM) | 6.25 (≈ 8.89 µM) | 0.098 (≈ 0.139 µM) | 1.56 (≈ 2.22 µM) | 1.56 (≈ 2.22 µM) | – | – | – | – | – | –
N=C(N)NCCCCC(=O)Nc1cc(C(F)(F)F)cc(NC(=O)Nc2ccc3nc(NC(=O)Nc4cc(C(F)(F)F)cc(NC(=O)CCCCNC(=N)N)c4SCCN)sc3c2)c1SCCN [Compound 111, N-[2-(2-aminoethylsulfanyl)-3-[[2-[[2-(2-aminoethylsulfanyl)-3-(5-guanidinopentanoylamino)-5-(trifluoromethyl)phenyl]carbamoylamino]-1,3-benzothiazol-6-yl]carbamoylamino]-5-(trifluoromethyl)phenyl]-5-guanidino-pentanamide] | 54 (≈ 53.9 µM) | 50.1 (≈ 50 µM) | 3.13 (≈ 3.12 µM) | 12.5 (≈ 12.5 µM) | 0.195 (≈ 0.195 µM) | 3.13 (≈ 3.12 µM) | 3.13 (≈ 3.12 µM) | – | – | – | – | – | –
N=C(N)NCCCCC(=O)Nc1cc(C(F)(F)F)cc(NC(=O)Nc2ccc3nc(NC(=O)Nc4cc(C(F)(F)F)cc(NC(=O)CCCCNC(=N)N)c4O[C@@H]4CCNC4)sc3c2)c1O[C@@H]1CCNC1 [Compound 112, 5-guanidino-N-[3-[[2-[[3-(5-guanidinopentanoylamino)-2-[(3R)-pyrrolidin-3-yl]oxy-5-(trifluoromethyl)phenyl]carbamoylamino]-1,3-benzothiazol-6-yl]carbamoylamino]-2-[(3R)-pyrrolidin-3-yl]oxy-5-(trifluoromethyl)phenyl]pentanamide] | 105 (≈ 103 µM) | 52.5 (≈ 51.4 µM) | 3.13 (≈ 3.06 µM) | 25 (≈ 24.5 µM) | 0.098 (≈ 0.0959 µM) | 1.56 (≈ 1.53 µM) | 1.56 (≈ 1.53 µM) | – | – | – | – | – | –
NCCCc1cc(NC(=O)Nc2cc(C(F)(F)F)c(SCCN)cc2SCCN)ccc1Oc1ccc(NCCN)c(C(F)(F)F)c1 [Compound 113, 1-[4-[4-(2-aminoethylamino)-3-(trifluoromethyl)phenoxy]-3-(3-aminopropyl)phenyl]-3-[2,4-bis(2-aminoethylsulfanyl)-5-(trifluoromethyl)phenyl]urea] | 191 (≈ 271 µM) | 142 (≈ 201 µM) | 3.13 (≈ 4.43 µM) | 3.13 (≈ 4.43 µM) | 1.56 (≈ 2.21 µM) | 3.13 (≈ 4.43 µM) | 0.78 (≈ 1.11 µM) | 32 | – | – | – | – | –
NCCCc1cc(NC(=O)Nc2ccc(SCCN)c(C(F)(F)F)c2)ccc1Oc1ccc(NCCN)c(C(F)(F)F)c1 [Compound 114, 1-[4-[4-(2-aminoethylamino)-3-(trifluoromethyl)phenoxy]-3-(3-aminopropyl)phenyl]-3-[4-(2-aminoethylsulfanyl)-3-(trifluoromethyl)phenyl]urea] | 238 (≈ 377 µM) | 160 (≈ 254 µM) | 12.5 (≈ 19.8 µM) | 3.13 (≈ 4.96 µM) | 1.56 (≈ 2.47 µM) | 6.25 (≈ 9.91 µM) | 1.56 (≈ 2.47 µM) | – | – | – | – | – | –
NCC#Cc1cc(-n2ccc3cc([N+](=O)[O-])ccc32)cc(C(F)(F)F)c1 [Compound 115] | 74.3 (≈ 207 µM) | 43.3 (≈ 121 µM) | – | – | – | – | – | – | 25 (≈ 69.6 µM) | 7.5 (≈ 20.9 µM) | 6.25 (≈ 17.4 µM) | 25 (≈ 69.6 µM) | 25 (≈ 69.6 µM)
